Experimental data from US20220144848A1, “SUBSTITUTED OXOPYRIDINE DERIVATIVES” (Bayer Aktiengesellschaft, priority 2018, published 2022).

Columns and labels:
human factor XIa = target: T1, human factor XIa (Homo sapiens, UniProt P03951); assay: Measurement of FXIa inhibition (fluorogenic peptide substrate Boc-Glu(OBzl)-Ala-Arg-AMC); assay type: biochemical; conditions: factor XIa from Kordia, 15 min preincubation, 30 min at 22° C., fluorescence; some as mean values from multiple determinations
T1 construct: purchased Kordia
T1 sequence (P03951 388-625 limits assumed): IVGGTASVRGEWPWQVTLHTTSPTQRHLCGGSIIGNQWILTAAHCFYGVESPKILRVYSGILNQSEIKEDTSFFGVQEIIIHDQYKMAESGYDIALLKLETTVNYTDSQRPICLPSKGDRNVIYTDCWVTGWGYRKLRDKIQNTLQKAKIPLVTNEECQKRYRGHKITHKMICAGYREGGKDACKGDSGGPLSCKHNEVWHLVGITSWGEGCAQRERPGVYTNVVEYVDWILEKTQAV
T1 sequence (P03951 19-387 partner limits assumed): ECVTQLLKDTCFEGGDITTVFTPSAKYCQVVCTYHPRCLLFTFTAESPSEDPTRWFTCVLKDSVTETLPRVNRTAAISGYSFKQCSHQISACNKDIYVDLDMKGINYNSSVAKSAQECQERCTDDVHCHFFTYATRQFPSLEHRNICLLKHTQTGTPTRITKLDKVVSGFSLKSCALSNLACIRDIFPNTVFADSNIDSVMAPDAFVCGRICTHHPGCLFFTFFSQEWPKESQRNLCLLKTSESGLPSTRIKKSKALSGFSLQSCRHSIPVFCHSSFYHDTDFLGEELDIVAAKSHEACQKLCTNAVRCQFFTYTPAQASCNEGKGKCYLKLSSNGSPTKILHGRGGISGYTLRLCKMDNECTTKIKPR

human plasma kallikrein = target: T2, human plasma kallikrein (Homo sapiens, UniProt P03952); assay: Determination of the plasma kallikrein activity (fluorogenic peptide substrate H-Pro-Phe-Arg-AMC); assay type: biochemical; conditions: plasma kallikrein from Kordia, 15 min preincubation, 30 min at 22° C., fluorescence; some as mean values from multiple determinations
T2 construct: purchased Kordia
T2 sequence (P03952 391-638 limits assumed): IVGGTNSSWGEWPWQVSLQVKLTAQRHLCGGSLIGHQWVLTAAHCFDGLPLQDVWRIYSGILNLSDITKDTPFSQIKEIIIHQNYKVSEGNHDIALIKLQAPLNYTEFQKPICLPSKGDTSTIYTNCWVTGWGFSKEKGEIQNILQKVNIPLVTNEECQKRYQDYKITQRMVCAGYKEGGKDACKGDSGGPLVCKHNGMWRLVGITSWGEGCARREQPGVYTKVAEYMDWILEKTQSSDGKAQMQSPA
T2 sequence (P03952 20-390 partner limits assumed): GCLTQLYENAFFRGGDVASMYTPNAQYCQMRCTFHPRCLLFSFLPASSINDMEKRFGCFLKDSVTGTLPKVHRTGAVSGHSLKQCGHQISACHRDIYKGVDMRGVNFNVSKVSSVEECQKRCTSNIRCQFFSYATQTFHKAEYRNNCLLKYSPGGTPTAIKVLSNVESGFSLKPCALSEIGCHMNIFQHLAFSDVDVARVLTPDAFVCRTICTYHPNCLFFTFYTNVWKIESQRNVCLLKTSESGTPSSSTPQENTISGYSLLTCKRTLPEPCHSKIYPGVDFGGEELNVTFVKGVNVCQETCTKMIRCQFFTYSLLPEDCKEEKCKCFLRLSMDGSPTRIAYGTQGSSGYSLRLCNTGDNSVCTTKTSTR

IC50 (human factor XIa) | IC50 (human plasma kallikrein) | Compound
1.5 nM | 74 nM | CO[C@@H](C)C[C@@H](C(=O)Nc1ccc(C(N)=O)cc1)n1cc2c(cc1=O)-c1c(ccc(Cl)c1F)C[C@@H](C(F)(F)F)OC2 (single isomer, unassigned) [Example 78]
26 nM | 250 nM | CO[C@@H](C)C[C@@H](C(=O)Nc1ccc(C(N)=O)cc1)n1cc2c(cc1=O)-c1c(ccc(Cl)c1F)C[C@@H](C)O[C@H]2C (single isomer, unassigned) [Example 79]
9.5 nM | 280 nM | CO[C@@H](C)C[C@@H](C(=O)Nc1ccc(C(N)=O)cc1)n1cc2c(cc1=O)-c1c(ccc(Cl)c1Cl)C[C@@H](C(F)(F)F)OC2 (single isomer, unassigned) [Example 80]
